In general, EC50 refers to the concentration that produces a half-maximal response. High values mean weaker potency, low ones greater potency. Usually EC90 stands for the concentration needed for an effect of 90%. The low end stands for greater potency, the high end for weaker potency.

Two molecules from publication PMC8874959 (Viruses, 2022) can be followed below.

Each structure is given as a SMILES string. Read-outs that look alike come from different tables or passages of the source. Some results are limits rather than exact numbers.

Assay [1] has as its system SARS-CoV-2 D614G.
In assay [2] the test system is SARS-CoV-2 D614G. This is another data set of the same source.

In the assay on SARS-CoV-2 D614G [1], `CCN(CC)CCCC(C)Nc1ccnc2cc(Cl)ccc12` (centres unmarked) [Chloroquine] gave an EC50 above 10 µM and a 90% effect concentration (EC90) above 10 µM. In the assay with SARS-CoV-2 D614G [2], this molecule showed a concentration giving a half-maximal response (EC50) of 1.1 ± 0.07 µM and an EC90 of 3.5 ± 0.8 µM.

As for `OC(c1cc(C(F)(F)F)nc2c(C(F)(F)F)cccc12)C1CCCCN1` (centres unmarked) [Mefloquine], in the assay with SARS-CoV-2 D614G [2], the 50% effective concentration (EC50) came out at 0.6 ± 0.03 µM.
